Assays:
[1] = tested on: Pseudomonas aeruginosa strain H1001 fliC::luxCDABE; assay: Luminescence-based assay for the non-cleaved (bound) peptides on cellulose membranes; assay type: cell-based; settings: for Luminescence at the given time in minutes: 0 / Luminescence at the given time in minutes: 20 / Luminescence at the given time in minutes: 40 / Luminescence at the given time in minutes: 60 / Luminescence at the given time in minutes: 80 / Luminescence at the given time in minutes: 100 / Luminescence at the given time in minutes: 120 / Luminescence at the given time in minutes: 180 / Luminescence at the given time in minutes: 240: cellulose-bound peptide; for Luminescence at the given time in minutes: 0: 0 min; for Luminescence at the given time in minutes: 20: 20 min; for Luminescence at the given time in minutes: 40: 40 min; for Luminescence at the given time in minutes: 60: 60 min; for Luminescence at the given time in minutes: 80: 80 min; for Luminescence at the given time in minutes: 100: 100 min; for Luminescence at the given time in minutes: 120: 120 min; for Luminescence at the given time in minutes: 180: 180 min; for Luminescence at the given time in minutes: 240: 240 min; for Activity Class bound: uncleaved cellulose-bound peptides
Method: Luminescence-based MIC assay for the non-cleaved peptides on cellulose membranes. The peptide spots were punched out and transferred to a 96 well microtiter plate with a clear polystyrene bottom and opaque white polypropylene sides (PerkinElmer, Boston, USA). The spots were washed two times with 100% ethanol for 5 min and afterwards equilibrated five times with 100 mM Tris buffer pH 7.3 for 5 min. An overnight culture of Pseudomonas aeruginosa strain H1001 fliC::luxCDABE was diluted 1:50 in new MH medium and incubated at 37° C. to an OD600 of 0.35. This bacterial culture was diluted 1:25 into 10 mM Tris-HCl buffer, pH 7.3 containing 20 mM glucose. Fifty μl of this culture was added to all wells of the microtiter plate and incubated at 37° C. The luminescence of the strain produced by the ATP-dependent luciferase system was detected in a time dependent manner using a Tecan Spectra Fluor plus (Tecan, Austria). At the end of the experiment, the membranes were cleaned by washing the spots two times with 100% ethanol for five minutes. After removing the ethanol the membrane was air-dried.
(§1) Strains. For the killing assay a mini-Tn5-lux mutant in Pseudomonas aeruginosa H103 was used. The strain is called H1001 and contains a fliC::luxCDABE transcriptional fusion resulting in constitutive expression of luciferase. The bacterial strains used for the antimicrobial activity assays included Escherichia coli UB1005 (F-, nalA37, metB1), a wild-type Salmonella enterica ssp. Typhimurium (S. Typhimurium), wild-type Pseudomonas aeruginosa PAO1 strain H103, Enterococcus faecalis ATCC29212, Staphylococcus aureus ATCC25923, and a clinical isolate of Staphylococcus epidermidis obtained from Dr. D. Speert (Department of Medicine, University of British Columbia). Antifungal activity was tested using a lab isolate of Candida albicans obtained from Dr. B. Dill (Department of Microbiology and Immunology, University of British Columbia).
The same set of peptides, as well as the reversed sequence of Bac2A-R ([…]; SEQ ID NO: 2166), were synthesized on cellulose and left uncleaved. The production of light was initially compared in wells containing spots of Bac2A, Bac2A-R (with the reversed sequence of Bac2A), the unrelated negative-control peptide, or, as additional controls, only cellulose, or only bacteria (FIG. 2).
As a control, the negative control (unrelated) peptide Bac429 and parent peptide Bac2A (=Bac001) were used in several different wells of the microtiter plate. Luminescence (relative light units; RLU) was measured at 14 different time points, 9 of which are shown. To permit comparison of the data with the free peptide data set, the result for each peptide was classified into six different groups, like the data set with the free peptides (Table 2). […] For the soluble peptides the following classes were established: […]

[2] = tested on: Pseudomonas aeruginosa strain H1001; assay: Assay for the cleaved (free, soluble) peptides from cellulose support, luminescence killing assay; assay type: cell-based; set-up: key: 1: Peptides showing stronger killing than Bac2A at a 4 to 8-fold higher dilution; Peptides showing stronger killing compared to that of Bac2A at a 4-fold higher dilution; 3: Peptides similar to Bac2A; 4: Peptides similar to Bac2A at the highest concentration but demonstrating weaker killing at a 2-fold dilution; 5: Peptides giving very weak or no killing at a 2-fold dilution; 6: Peptides with weak killing activity at the highest concentration; settings: free (cleaved) peptides, killing relative to Bac2A
Method: Assay for the cleaved peptides from cellulose support. The peptides were cleaved from the dried membrane in an ammonia atmosphere overnight, resulting in free peptides with an amidated C-terminus. The free peptides contained two β-alanines at the C-terminus, in addition to being amidated due to the linker between the cellulose membrane and the peptide sequence. The peptide spots were punched out and transferred in a 96-well microtiter plate. Serial dilutions were carried out from the membrane spots. Four rows were filled with four controls including two with Bac2A and two with of an unrelated peptide. The other eight rows were used for serial dilution steps of the peptide variants. An overnight culture of Pseudomonas aeruginosa strain H1001 was diluted 1:500 using either LB media or 100 mM Tris buffer pH 7.3, 20 mM glucose and was added to the wells (100 μl/well) containing the peptide spots. In all other wells 50 μl were added. The microtiter plate was incubated for 30 min at 37° C. to release the peptides from the membrane. Subsequently, a dilution series were performed and the plate was incubated at 37° C. The luminescence produced by the ATP dependent luciferase system were detected in a time dependent manner using a Tecan Spectra Fluor plus.
as §1
Peptide synthesis on cellulose is a very effective and inexpensive way to investigate many different peptide variants for one particular activity. However, one of the problems of this technique is the low peptide density synthesized on the membrane, about 280 nmol per cm2. An average peptide spot used for the experiments presented is about 0.3 cm2. Therefore, an assay had to be developed that was sensitive enough to show activity with this amount of peptides. P. aeruginosa H1001 has a reporter system (e.g., a luciferase gene cassette) incorporated into the bacterial chromosome in the fliC gene (involved in flagellar biosynthesis) that is constitutively expressed. It will thus produce light if ATP is present. When this strain is killed, e.g. by peptides, the amount of light produced will decrease due to a decrease in ATP levels in the killed cells. This action can thus be monitored by detecting luminescence in a microtiter plate luminescence reader over time. The volume and amount of cells per well were optimized for this assay. After screening, the killing action was monitored with small amounts of the parent peptide Bac2A (2 μg/ml of free peptide).
Forty-nine scrambled peptides (Bac002-Bac050) were synthesized on the cellulose support and then cleaved by ammonia gas resulting in free peptides with an amidated C-terminus including the linker. The peptide spots were transferred to a 96-well microtiter plate and incubated for 30 min to dissociate the peptides from the cellulose. After serial dilution and addition of strain H1001, luminescence was recorded in a time dependent manner (FIG. 1). All 50 scrambled peptides were compared to Bac2A ([…]-NH2; SEQ ID NO: 1) by this assay (see Table 2). […] Further since all scrambled peptides had some activity, a sequence-specific interaction of the peptides with a receptor or target could be excluded.

| Sequence | Luminescence at the given time in minutes: 0 [1] | Luminescence at the given time in minutes: 20 [1] | Luminescence at the given time in minutes: 40 [1] | Luminescence at the given time in minutes: 60 [1] | Luminescence at the given time in minutes: 80 [1] | Luminescence at the given time in minutes: 100 [1] | Luminescence at the given time in minutes: 120 [1] | Luminescence at the given time in minutes: 180 [1] | Luminescence at the given time in minutes: 240 [1] | Activity Class bound [1] | Activity Class Soluble [2] |
| --- | --- | --- | --- | --- | --- | --- | --- | --- | --- | --- | --- |
| IVRVAVALRRIR [Bac005] | 3853 RLU | 6844 RLU | 5163 RLU | 4287 RLU | 3443 RLU | 2254 RLU | 1891 RLU | 1665 RLU | 1791 RLU | 5 (Peptides reducing luminescence (lux) values to between 1500 to 3000 after 240 min.) | 3 |
| LAIVRRARVRIV [Bac031] | 4646 RLU | 7357 RLU | 5808 RLU | 5146 RLU | 4145 RLU | 3815 RLU | 3472 RLU | 3130 RLU | 3247 RLU | 6 (Peptides having residual luminescence (lux) values greater than 3000 after 240 min.) | 5 |
| RAIIRRVLVRVA [Bac024] | 4164 RLU | 7630 RLU | 5586 RLU | 4358 RLU | 3256 RLU | 2398 RLU | 1727 RLU | 1384 RLU | 1373 RLU | 4 (Peptides reducing luminescence (lux) values to between 500 to 1499 after 240 min.) | 4 |
| RAIRVRRIVLAV [Bac037] | 4908 RLU | 6480 RLU | 4105 RLU | 1624 RLU | 366 RLU | 120 RLU | 54 RLU | 59 RLU | 46 RLU | 3 (Peptides similar to Bac2A resulting in lux values of less than 500 after 240 min.) | 4 |
| RARIVRVRVILA [Bac016] | 4172 RLU | 6362 RLU | 2916 RLU | 678 RLU | 142 RLU | 80 RLU | 60 RLU | 68 RLU | 22 RLU | 3 (Peptides similar to Bac2A resulting in lux values of less than 500 after 240 min.) | 2 |
| RARRVRVLIAIV [Bac036] | 5208 RLU | 7062 RLU | 5114 RLU | 3233 RLU | 1182 RLU | 394 RLU | 215 RLU | 129 RLU | 107 RLU | 3 (Peptides similar to Bac2A resulting in lux values of less than 500 after 240 min.) | 4 |
| RIVLRRAAVIRV [Bac039] | 4727 RLU | 7074 RLU | 5814 RLU | 5262 RLU | 4994 RLU | 4717 RLU | 4569 RLU | 4524 RLU | 5392 RLU | 6 (Peptides having residual luminescence (lux) values greater than 3000 after 240 min.) | 5 |
| RLRVAIVAIVRR [Bac041] | 4620 RLU | 5674 RLU | 615 RLU | 54 RLU | 68 RLU | 37 RLU | 77 RLU | 53 RLU | 37 RLU | 2 (Peptides reducing lux values to between 500 and 1000 after 40 min.) | 4 |
| RRIARVIVAVLR [Bac002] | 4340 RLU | 6090 RLU | 1631 RLU | 135 RLU | 58 RLU | 48 RLU | 35 RLU | 59 RLU | 48 RLU | 3 (Peptides similar to Bac2A resulting in lux values of less than 500 after 240 min.) | 3 |
| RRLVAIVAVRRI [Bac007] | 3943 RLU | 7157 RLU | 4403 RLU | 2010 RLU | 679 RLU | 205 RLU | 90 RLU | 89 RLU | 79 RLU | 3 (Peptides similar to Bac2A resulting in lux values of less than 500 after 240 min.) | 4 |
